These results are taken from patent publication US20100016387A1, “METHOD OF TREATMENT” (priority 2006, published 2010).

For data set [1], the system named is neonatal rat cardiomyocytes. Description: Fatty acid oxidation (14CO2 release from 14C-palmitate) in rat primary cardiomyocytes treated with DGAT1 inhibitor. The conditions noted are these: 1 μM, 2 hr.
Description: Neonatal Rat Ventricular Myocytes (NRVM's) were extracted from 1-3 day old Sprague Dawley rat pups. […] Both the right and left ventricles were digested in CBHHF media containing 0.2% Trypsin, 100 U Penn-Strep and DNAse II. […] Fibroblasts were separated from the myocytes by preplating for 30 min. […] Myocytes were then collected and cultured in MEM/5% FBS/Pen-Strep/BrDU/L-Gln overnight at 37 C, 5.0% CO2 at a confluency of 75-80% (1.8×10^6 cells per well of a 6 well plate and 0.9×10^6 cells per well of a 12 well plate). The following day myocyte containing plates were assayed for fatty acid oxidation capacity.
Rat primary cardiomyocytes were plated in either 6 well plate or 12 well plate. […] The sample was counted on a beta scintillation counter after resting for at least 2 hours. […]
Primary rat cardiomyocytes were incubated with 1 μM {4-[4-(4-Amino-7,7-dimethyl-7H-pyrimido[4,5-b][1,4]oxazin-6-yl)-phenyl]-cyclohexyl}-acetic acid for 2 hr. The cells were then incubated with ^14C-labeled palmitate and liberated ^14CO2 was determined as described. […]
Primary rat cardiomyocytes were incubated with 1 μM {4-[4-(4-Amino-7,7-dimethyl-7H-pyrimido[4,5-b][1,4]oxazin-6-yl)-phenyl]-cyclohexyl}-acetic acid for 2 hr. The cells were then incubated with ^14C-labeled palmitate, with 0.5 mM glucose, and liberated ^14CO2 was determined as described. […]

As to `Cc1ccc(NC(=O)c2ccc3c(c2)C(=O)N(c2c(C)cccc2C)C3=O)cc1C`, the melting point is 223 to 225 °C.
For the compound `CC1(C)Oc2ncnc(N)c2N=C1c1ccc(C2CCC(CC(=O)O)CC2)cc1` (stereo not drawn), the “fatty acid oxidation in cardiomyocytes in presence of glucose” value in data set [1] (0.5 mM glucose, FIG. 3, p<0.05) was “robust decrease in fatty acid oxidation”. Also, in data set [1] (absence of glucose, FIG. 2, p<0.05), the “decrease in the ability of cells to oxidize [14C]palmitate” value is listed as roughly 15%.

A word on the melting point: it is the temperature of the solid-liquid transition.
